Test results taken from patent US12391672B2, “Solid forms comprising (S)-4-(4-(4-(((2-(2,6-dioxopiperidin-3-yl)-1-oxoisoindolin-4-yl)oxy)methyl)benzyl)piperazin-1-yl)-3-fluorobenzonitrile and salts thereof, and compositions comprising and methods of using the same” (Celgene Corporation, priority 2019, dated 2025).

What was measured:
Format in all cases: physicochemical
[1] = Solubility of polymorphic forms in physiologically relevant media and final pH
Excerpt: Solubility data of the several polymorphic forms of Compound 1 in physiologically relevant media and the final pH of these solutions are summarized in the following tables.

[2] = HBr salt solubility in buffers (1 mg/mL slurries, mother liquor by HPLC); settings: all buffers tested
Method: (§1) The HBr salt was largely insoluble in various buffers when 1 mg/mL slurries were prepared and the mother liquor concentration determined (by HPLC): <0.05 mg/mL in all buffers tested.

[3] = Dynamic vapor sorption / hygroscopicity
Method: Projekt Messtechnik (now ProUmid) SPS11-100n. The sample was placed on an aluminum holder on top of a microbalance and allowed to equilibrate at 50% r.h. before starting one of the following pre-defined humidity programs (1 cycle): • hold 2 h at 50% r.h., • decrease humidity −5% r.h. h^−1 for 10 h (i.e., from 50% r.h. to 0% r.h.), • hold 5 h at […]., • increase humidity +5% r.h. h^−1 for 19 h (i.e., from 0% r.h. to 95% r.h.), • hold 5 h at 95% r.h., • decrease humidity −5% r.h. h^−1 for 9 h (i.e., from 95% r.h. to 50% r.h.), • hold 2 h at 50% r.h. or • hold 2 h at 50% r.h., • increase humidity +5% r.h. h^−1 for 9 h (i.e., from 50% r.h. to 95% r.h.), • hold 5 h at 95% r.h., • decrease humidity −5% r.h. h^−1 for 19 h (i.e., from 95% r.h. to 0% r.h.), • hold 5 h at 0% r.h., • increase humidity +5% r.h. h^−1 for 10 h (i.e., from 0% r.h. to 50% r.h.), • hold 2 h at 50% r.h.
The hygroscopicity was classified based on the mass gain at 85% r.h. relative to the initial mass as follows: deliquescent (sufficient water adsorbed to form a liquid), very hygroscopic (mass increase of […]), hygroscopic (mass increase of <15% but ≥2%), slightly hygroscopic (mass increase of <2% but ≥0.2%), or non-hygroscopic (mass increase of <0.2%).

[4] = Solid state stability under accelerated storage conditions; settings: 40° C./75% RH, 80° C. and ambient light/temperature for 1 week
Method: Form A was not isolated directly as a wet cake but formed only upon drying of Form E in polymorphism studies. […] Small quantities of Form A were generated by dissolving a crude Compound 1 in MEK at high temperature, followed by fast cooling to room temperature, filtration and drying. DSC and TGA data were obtained for samples of Form A and following storage for 1 week at 60° C. and 60° C./75% RH. […] TGA analysis confirmed that this broad endotherm was most likely due to moisture uptake under the accelerated storage conditions. Most of the weight loss of 0.82% in this sample occurred in a single step at less than 75° C. By contrast, weigh loss was a two-step process at the initial time point. […] The residual solvent initially present in the sample was lost upon storage of the sample at 60° C. (0.13% weight loss between 25 to 150° C.).
Form B could be obtained from a process involving methyl acetate. […] HPLC traces were taken of the samples of Form B and following storage for 2 week at 60° C. and 60° C./75% RH. […] Several small degradation products were seen to grow especially in the sample stored at 60° C. Chiral instability was also observed in the sample stored at 60° C./75% RH.
Physical stability: Visually, all samples of Form K were white colored powder with no apparent change in color in the samples stored under accelerated conditions (40° C., 40° C./75% RH, 60° C., 60° C./75% RH and sample stored in light chamber in clear vials exposed to light and covered in aluminum foil) for 14 d relative to the sample stored refrigerated and under ambient conditions.
Solid state chemical stability: HPLC analysis were performed on Form K samples stored under the accelerated stability conditions. […] Based on the HPLC analysis data, there is a measurable but small change in the chemical stability of Form K under the accelerated conditions of temperature, humidity and exposure to light over the 14 d period.
Solid state chiral stability: Chiral stability of Form K samples stored under accelerated stability conditions was tested. There was ˜2.9% of the R-enantiomer (97.1 area % of the active S-isomer) in the initial sample. […]
The chiral purity (area % of S-isomer) remained […] under the accelerated stability conditions.

[5] = Competitive slurry and slurry stability experiments
Method: Form B was obtained at room temperature while form C was obtained at 45° C. in acetone alone.
as §1

SMILES: Br.N#Cc1ccc(N2CCN(Cc3ccc(COc4cccc5c4CN([C@H]4CCC(=O)NC4=O)C5=O)cc3)CC2)c(F)c1
- Solubility ([1]; FaSSIF): <LOQ
- Solubility ([1]; FeSSiF): 0.111 mg/mL
- Solubility ([1]; SGF with pepsin): 0.077 mg/mL
- Solubility ([1]; Water, t0): 0.301(t0), mg/ml
- Solubility ([1]; Water, t24): 0.212 mg/mL
- Solubility ([1]; pH 1 buffer HC1/NaC1): 0.018 mg/mL
- Solubility ([1]; pH 3 buffer (phosphate)): 0.032 mg/mL
- Solubility ([1]; pH 4 buffer (acetate)): 0.038 mg/mL
- Solubility ([1]; pH 5 buffer (acetate)): 0.004 mg/mL
- Final pH ([1]; solubility sample in FaSSIF): 6.40
- Final pH ([1]; solubility sample in FeSSiF): 5.16
- Final pH ([1]; solubility sample in SGF with pepsin): 1.15
- Final pH ([1]; solubility sample in Water): 4.53
- Final pH ([1]; solubility sample in pH 1 buffer HC1/NaC1): 0.95
- Final pH ([1]; solubility sample in pH 3 buffer (phosphate)): 3.11
- Final pH ([1]; solubility sample in pH 4 buffer (acetate)): 4.18
- Final pH ([1]; solubility sample in pH 5 buffer (acetate)): 5.08
- mother liquor concentration in buffers [2]: < 0.05 mg/mL
- hygroscopicity ([3]; DVS, class by mass gain at 85% r.h.): slightly hygroscopic (slightly hygroscopic (mass increase of <2% but ≥0.2%))
- solid form after DVS cycle ([3]; after the DVS humidity cycle): remains as Form A
- DVS mass increase ([3]; relative humidity from about 0% to about 95%): about 0.7%
- DVS mass increase ([3]; relative humidity from about 5% to about 90%): about 0.7%
- DVS mass increase ([3]; up to 90% RH): ~0.69%
- physical (XRPD) and chemical (HPLC) stability [4]: both physically and chemically stable
- disproportionation in water ([5]; slurried in water for ~24 h): did not appear to disproportionate back to the free base
- slurry in acetone/water mixtures (XRPD) ([5]; various water activities): no hydrate formation evident
